{"source": "patent US20240207410A1", "about": "“STABILIZED LIQUID COMPOSITIONS COMPRISING A LEVODOPA-TYROSINE CONJUGATE AND USES THEREOF” (NeuroDerm, Ltd., priority 2021, published 2024)", "key": {"[1]": {"system": "Pig/domestic", "assay": "Local infusion site reaction as part of a PK study (ND 2-20-102)", "type": "in vivo", "settings": "study ND 2-20-102, 200 mg/mL at 9 mL (1800 mg/day)", "experimental": "(§1) In vivo non-clinical safety studies were conducted in both the rat and minipig. Additionally, an assessment of the local infusion site reaction of LD-Tyr was performed as part of a PK study in domestic pigs."}, "[2]": {"system": "Minipig/Göttingen", "assay": "Local safety, 24-hour SC infusion", "type": "in vivo", "experimental": "as §1"}, "[3]": {"system": "red blood cells (RBC)", "assay": "Blood/plasma ratio, partitioning into red blood cells, minipig blood ex vivo", "type": "in vitro ADME", "settings": "for KRBC/PL: 50 ng/mL"}, "[4]": {"assay": "Long-term stability of 30% LD-Tyrosine/0.75% carbidopa at 2-8° C.", "type": "physicochemical", "experimental": "The formulation also included 0.5% ascorbic acid (Asc), 0.5% N-acetyl cysteine (NAC) and 0.3% Tween 80. The formulation was stored at 2-8° C. for the time indicated, and % recovery and % LD-Tyr-DKP formation (an impurity) were tested. Percent recovery remained high over time. The DKP impurity accumulated over time."}}, "note": "Where a SMILES comes first, the peptide text is derived from it. [ ]: non-standard residue; d: D form. Dopa = N[C@@H](Cc1ccc(O)c(O)c1)C(=O)O", "data": [{"smiles": "N[C@@H](Cc1ccc(O)c(O)c1)C(=O)N[C@@H](Cc1ccc(O)cc1)C(=O)O", "note": "[LD-Tyr, levodopa-tyrosine (LD-Tyr) conjugate of the formula (II)] (H-[Dopa]-Tyr-OH)", "values": [{"measurement": "subacute inflammation in the subcutis", "setting": "[1]", "value": "minimal to mild"}, {"measurement": "subchronic/chronic inflammation in the subcutis", "setting": "[2]; study 0NMR6, 120 mg/mL at 4.5 mL (540 mg/day)", "value": "minimal to mild"}, {"measurement": "tolerability (local effect, cutaneous ulcers)", "setting": "[2]; study 0NMR6, 24-hour SC infusion, 120 mg/mL at 4.5 mL (540 mg/day)", "value": "well tolerated with no"}, {"measurement": "chronic inflammation in the subcutis", "setting": "[2]; study 0NMR10, 130 mg/mL at 6 mL (780 mg/day)", "value": "minimal to moderate"}, {"measurement": "tolerability (local effect, cutaneous ulcers)", "setting": "[2]; study 0NMR10, 24-hour SC infusion, 130 mg/mL at 6 mL (780 mg/day)", "value": "well tolerated with no"}, {"measurement": "tolerability (local effect, cutaneous ulcers)", "setting": "[2]; study E0515, 24-hour SC infusion, 440, 370, 300, and 250 mg/mL (2640, 2775, 2700, and 2250 mg/day)", "value": "well tolerated with no"}, {"measurement": "RBC binding", "setting": "[3]; minipig blood", "value": "limited RBC binding"}, {"measurement": "KRBC/PL", "setting": "[3]; minipig blood, after 30 minutes (declined)", "value": 0.0}, {"measurement": "KRBC/PL", "setting": "[3]; minipig blood, at 15 and 30 minutes", "value": 1}, {"measurement": "partition coefficient between RBC and plasma (KRBC/PL)", "setting": "[3]; minipig blood, 50, 150 and 2500 ng/mL", "value": "below five"}, {"measurement": "KRBC/PL versus time of incubation", "setting": "[3]; minipig blood, two highest concentrations (150 and 2500 ng/mL)", "value": "increased with the time of incubation"}, {"measurement": "% DKP", "setting": "[4]; 1 month", "value": 1.88, "unit": "% area"}, {"measurement": "mg/mL (concentration in formulation)", "setting": "[4]; 1 month", "value": 295.74, "unit": "mg/mL"}, {"measurement": "% DKP", "setting": "[4]; 1 week", "value": 0.99, "unit": "% area"}, {"measurement": "mg/mL (concentration in formulation)", "setting": "[4]; 1 week", "value": 294.13, "unit": "mg/mL"}, {"measurement": "% DKP", "setting": "[4]; 2 months", "value": 2.60, "unit": "% area"}, {"measurement": "mg/mL (concentration in formulation)", "setting": "[4]; 2 months", "value": 302.47, "unit": "mg/mL"}, {"measurement": "% DKP", "setting": "[4]; 2 weeks", "value": 1.19, "unit": "% area"}, {"measurement": "mg/mL (concentration in formulation)", "setting": "[4]; 2 weeks", "value": 304.25, "unit": "mg/mL"}, {"measurement": "% DKP", "setting": "[4]; 3 months", "value": 4.04, "unit": "% area"}, {"measurement": "mg/mL (concentration in formulation)", "setting": "[4]; 3 months", "value": 296.57, "unit": "mg/mL"}, {"measurement": "% DKP", "setting": "[4]; t = 0", "value": 0.86, "unit": "% area"}, {"measurement": "mg/mL (concentration in formulation)", "setting": "[4]; t = 0", "value": 297.62, "unit": "mg/mL"}]}]}
